From patent US20080033169A1, “Crystalline Form Of Cefdinir Ammonium Salt As An Intermediate For The Preparation Of Pure Cefdinir” (priority 2004, published 2008)

Key:
stability = format: physicochemical; conditions: crystalline salt
water solubility = format: physicochemical; conditions: in water

stability (stability): good
water solubility (water solubility): complete
Compound: C=CC1=C(C(=O)O)N2C(=O)[C@@H](NC(=O)/C(=N\O)c3csc(N)n3)[C@H]2SC1.N [Crystalline Cefdinir ammonium salt, Cefdinir ammonium salt]
